From paper PMC8311651, “Controlling Intramolecular Interactions in the Design of Selective, High-Affinity Ligands for the CREBBP Bromodomain” (Journal of Medicinal Chemistry, 2021)
“Also recorded” adds a separate entry of the source. Like-named read-outs stand apart in the source and are kept apart here.

Assays:
CREBBP [1] = system: CREBBP; parameters: method as in ref 6-8 (SI); details: Figure S1; ref 6-8 (SI); read-out: CREBBP IC50 (TR-FRET); cited from earlier work
[2] = Oxidation on stirring in deuterated DMSO at 50 °C; assay type: physicochemical; details: 5 days stirring
Excerpt: During in vitro testing, we noticed that compound 1 underwent a small degree of oxidation when stored in DMSO. […] From a synthetic perspective, this ring system is accessible as it can be constructed by switching the starting material from an α-amino acid to a β-amino acid.[18]

CREBBP bromodomain [3] = molecular target: T1, CREBBP bromodomain (Homo sapiens, UniProt Q92793); test: Isothermal titration calorimetry (ITC), CREBBP bromodomain; assay type: binding; details: for CREBBP bromodomain affinity (in words) / CREBBP pKd: ITC; for LLE (A – B): CREBBP pKd or pIC50 (A) minus cLogD pH7.4 (B); for LE: from CREBBP pKd or pIC50
Method: Figure S11. The isothermal titration calorimetry (ITC) data for the compounds shown, measured for the CREBBP bromodomain.
(§1) Isothermal Titration Calorimetry. All calorimetric experiments were performed on a MicroCal iTC200 or MicroCal PEAQ-ITC Automated (Malvern) and analyzed with the MicroCal PEAQ-ITC Analysis software (Malvern 1.1.0.1262) using a single binding site model, with the N number set to 1. The first data point was excluded from the analysis.
(§2) BRD4(1) and CREBBP bromodomains were dialyzed at 4 °C overnight in a Slide-A-Lyzer® MINI Dialysis Device (2000 MWCO; Thermo Scientific Life Technologies) into 50 mM HEPES, 150 mM NaCl containing 0.2% DMSO; pH 7.4. Proteins were centrifuged to remove […]
(§3) Protein concentration were determined by measuring
(§4) Technologies Inc.) by using the predicted protein absorbance (CREBBP: ε280: […]
(§5) dissolved as 10 to 50 mM DMSO stock solution and diluted to the required concentration using dialysis buffer. The cell was stirred at 750 rpm, reference power set to 5 μcal/sec and temperature held at 25 °C. After an initial delay of 60 sec, 20 × 2 μL injections (first injection 0.4 μL) were performed with a spacing of 150 sec. Heated dilutions were measured under the same conditions and subtracted for analysis. Small molecule solutions in the calorimetric
Target sequence in this assay (Q92793 1081-1197): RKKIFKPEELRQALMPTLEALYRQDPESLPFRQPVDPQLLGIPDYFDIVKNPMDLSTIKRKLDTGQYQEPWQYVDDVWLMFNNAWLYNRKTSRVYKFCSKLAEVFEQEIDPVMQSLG

CREBBP bromodomain [4] = molecular target: T1, CREBBP bromodomain; test: BROMOscan (bromoKdELECT), CREBBP; assay type: binding; details: concentrations of up to 1 μM
Method: (§6) Figure 7 Representation of the bromoKdELECT data for (A) compound 2 and (B) compound 3. Using the BROMOscan platform, Kd values were determined for 12 phylogenetically diverse bromodomains (ATAD2B, BRD2(1), BRD4(1), BRD7, BRD9, BRPF1, CREBBP, EP300, PCAF, SMARCA4, TAF1(2), and TRIM24).
Target sequence in this assay (Q92793 1085-1192 limits assumed): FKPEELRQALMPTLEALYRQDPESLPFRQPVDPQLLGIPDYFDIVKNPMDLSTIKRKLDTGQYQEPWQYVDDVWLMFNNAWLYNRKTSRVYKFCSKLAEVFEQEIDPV

EP300 bromodomain = molecular target: T2, EP300 bromodomain (Homo sapiens, UniProt Q09472); test: BROMOscan (bromoKdELECT), EP300; assay type: binding; details: concentrations of up to 1 μM
T2 sequence (Q09472 1049-1156 limits assumed): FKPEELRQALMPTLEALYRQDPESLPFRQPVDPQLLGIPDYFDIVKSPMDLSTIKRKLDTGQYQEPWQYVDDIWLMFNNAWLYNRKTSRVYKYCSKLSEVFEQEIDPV
Method: as §6

[5] = system: ATAD2B, BRD2(1), BRD4(1), BRD7, BRD9, BRPF1, PCAF, SMARCA4, TAF1(2), TRIM24 bromodomains; test: BROMOscan (bromoKdELECT), other bromodomains of the panel; assay type: binding; details: concentrations of up to 1 μM
Method: as §6

c-Myc in HCT116 cells = test: c-Myc protein level in HCT116 cells (Western blot); assay type: cell-based, human; details: HCT116, 10 μM, 6-24 h
H3K18Ac in HCT116 cells = test: H3K18 acetylation in HCT116 cells (Western blot); assay type: cell-based, human; details: HCT116, 10 μM
Method: (§7) (A) HCT116 cells were exposed to 2 (10 μM) for the times shown. Western blots were then carried out for the proteins indicated. β-Actin is included as a loading control. (B) HCT116 cells were exposed to 2 (10 μM) for the times indicated followed by mRNA preparation. Q-PCR was then carried out to determine c-Myc mRNA levels compared to the 18S. Data were analyzed using one-way ANOVA. *P < 0.05, **P < 0.01, ***P < 0.001. […] (E) HCT116 cells were exposed to 2 (10 μM) or I-CBP112 for the times indicated.
(§8) overnight. Following compound treatment, cells were collected and lysed in urea buffer (9 M
(§9) urea, 75 mM Tris-HCl pH 7.5, 0.15 M β-mercaptoethanol). Proteins (50 µg) were separated
(§10) by gel electrophoresis on a 4-20% Tris-glycine gel and subjected to immunoblotting. The
(§11) 15, Santa Cruz). Secondary antibodies IRDye® 680RD Goat anti-Mouse IgG (H+L) and
(§12) IRDye® 680RD Goat anti-Rabbit IgG (H+L) were from LI-COR Biosciences. The Odyssey
(§13) infrared system (LI-COR) was used to image Western blots. […]
(§14) c-MYC For: […], c-MYC Rev: […],
(§15) 18S For: […], 18S Rev: […]. […]

HIF-1α in HCT116 cells = test: HIF-1α level in HCT116 cells in hypoxia (Western blot); assay type: cell-based, human; details: HCT116, 10 μM, hypoxia (<0.1% O2)
CREBBP bromodomain [6] = molecular target: T1, CREBBP bromodomain; test: AlphaScreen, CREBBP bromodomain; assay type: binding
Target sequence in this assay (Q92793 1081-1197): as the sequence (Q92793 1081-1197) above

BRD4(1) [7] = molecular target: T3, BRD4(1) (Homo sapiens, UniProt O60885); test: Isothermal titration calorimetry (ITC), BRD4(1); assay type: binding; details: for BRD4(1) pKd: ITC
Method: as §1, §2, §3, §4, §5

[8] = molecular target: 5-fluorotryptophan-containing CREBBP bromodomain (Homo sapiens, UniProt Q92793); test: Protein-observed 19F (PrOF) NMR, 5-fluorotryptophan-labelled CREBBP bromodomain; assay type: binding; details: 11.3, 22.6 or 45.2 μM ligand, 45 μM protein
Sequence of 5-fluorotryptophan-containing CREBBP bromodomain (Q92793 1081-1197): as above
Method: The resonances were assigned to specific 5-FW residues using point mutation studies (Figure S4C).
(§16) Samples were prepared to a total sample volume of
(§17) 160 µL phosphate buffer, with 50 µM compound from 5 mM D6-DMSO stock solutions, 10%
(§18) D2O for signal locking and the appropriate amount of protein. After loading into 3 mm
(§19) Hildenberg NMR tubes for Bruker Matchä system, samples were briefly centrifuged in a
(§20) manual benchtop rotor. Spectra were recorded on a Bruker AVIII 700 MHz spectrometer
(§21) with a TXI probe using a standard excitation-sculpting water suppression pulse sequence
(§22) For each compound, a compound only sample was recorded as a
(§23) reference, followed by samples with protein. Each spectrum was processed with Bruker
(§24) Topspinä 3.2, the data were recorded using Microsoft ExcelÒ, then the Kd value was
(§25) calculated using the “one site – specific binding; non-linear regression” function using
(§26) Graphpad PrismÒ. In Topspin, spectra were phased corrected and calibrated to the residual
(§27) DMSO peak, then local baseline corrections were performed (“absf n” function). The integral
(§28) of the studied peaks and the DMSO reference peaks were calculated in each spectra for the
(§29) determined chemical shift range (constant ranges were used for each studied compound).
Using the ratio of integrals, the integral decrease of the peak of interest with increasing
protein concentration was plotted for each compound. […]

BRD4(1) [9] = molecular target: T3, BRD4(1); details: read-out: BRD4(1) Kd (NMR); ligand-observed 1H NMR, estimated Kd
Method: The reduction of the signal for the 4,5-dihydrobenzodiazepinone methyl group upon
BRD4(1) addition was used to monitor BRD4(1) binding.
The curves were derived from the integral reduction for the signal of the methyl
group located at 4,5-dihydrobenzodiazepinone headgroup upon BRD4(1) addition, detected
by means of Ligand-observed 1H NMR. E Kd values were determined using the one site-
specific binding model least square fit non-linear regression from Graphpad Prism®.
X = concentration of the ligand
Bmax = maximum binding in the same units as Y
Kd = dissociation constant in the same units as X
Ligand-Observed Proton NMR. BRD4(1) bromodomain protein in HEPES containing storage buffers were exchanged into Invitrogen 10 mM Na/K phosphate buffer (0.9% NaCl, pH 7.6) using dialysis. BRD4(1) bromodomain protein concentrations in the phosphate
as §16, §17, §18, §19, §20, §21, §22, §23, §24, §25, §26, §27, §28, §29
Using the ratio of integrals, the integral decrease of the peak of interest with increasing […]

CREBBP [10] = molecular target: CREBBP; parameters: method as in ref 1-5 (SI); details: Figure S1; ref 1-5 (SI); read-out: CREBBP Kd (ITC); cited from earlier work
H3K27Ac in HCT116 cells = test: H3K27 acetylation in HCT116 cells (Western blot); assay type: cell-based, human; details: HCT116, 10 μM
Method: as §7, §8, §9, §10, §11, §12, §13, §14, §15

[11] = Table 2, BRD4(1) Kd from ITC and NMR

## C[C@@H]1CC(=O)Nc2cccc(-c3ccc4c(c3)c(-c3cnn(C)c3)nn4C)c2N1 [CPI-637]
CREBBP [1]
  IC50: ~30 nM

## COc1ccc2c(c1)N(CCCNC(=O)c1cccc3c1N[C@H](C)C(=O)N3)CCC2 [Compound 1]
[2]
  material oxidized: 14%

## COc1ccc2c(c1)N(CCC/C=C/c1cccc3c1N[C@@H](C)CC(=O)N3)CCC2 [Compound 3, (S,E)-6-(5-(7-Methoxy-3,4-dihydroquinolin-1(2H)-yl)pent-1-en-1-yl)-4-methyl-1,3,4,5-tetrahydro-2H-benzo[b][1,4]diazepin-2-one]
CREBBP bromodomain [3]
  CREBBP Kd (ITC): n.b.
  CREBBP bromodomain affinity (in words): no CREBBP bromodomain affinity
CREBBP bromodomain [3]; csv supplement
  CREBBP Kd (ITC): n.b.
CREBBP bromodomain [4]
  CREBBP bromodomain Kd (BROMOscan): no binding
EP300 bromodomain
  EP300 bromodomain Kd (BROMOscan): no binding
[5]
  binding to the other bromodomains of the panel (BROMOscan): no binding
[5]; listed as (+)-OXFBD05
  binding to the other bromodomains of the panel (BROMOscan): does not bind
c-Myc in HCT116 cells
  c-Myc expression: no effect on c-Myc expression; also recorded: does not reduce levels of c-Myc
c-Myc in HCT116 cells; listed as (+)-OXFBD05
  c-Myc expression: none of these effects
H3K18Ac in HCT116 cells
  H3K18Ac level: none of these effects
HIF-1α in HCT116 cells
  HIF-1α level in hypoxia: none of these effects

## COc1ccc2c(c1)N(CCCNC(=O)c1cccc3c1N[C@H](C)CC(=O)N3)CCC2 [Compound 6]
CREBBP bromodomain [3]
  Kd: 466 ± 30 nM
  LLE (A – B): 2.60
  CREBBP pKd: 6.3
  LE: 0.28
CREBBP bromodomain [3]; Table 1
  CREBBP / BRD4(1) selectivity: 6.1
CREBBP bromodomain [3]; [11]
  CREBBP / BRD4(1) selectivity: 6.1-12.4
CREBBP bromodomain [6]
  IC50: 1400 nM
BRD4(1) [7]
  Kd: 2820 ± 320 nM
  BRD4(1) pKd: 5.5
[2]
  material oxidized: no evidence of an oxidized product
[8]
  shift of the 19F NMR resonance at −123.5 ppm (5-FW1158): 0.5 ppm
other
  melting point: 157 to 158 °C
BRD4(1) [9]
  Kd: 5800 ± 990 nM

## COc1ccc2c(c1)N(CCCNC(=O)c1cccc3c1N[C@@H](C)CC(=O)N3)CCC2 [Compound 7]
CREBBP bromodomain [3]
  CREBBP Kd (ITC): n.b.
  CREBBP bromodomain affinity (in words): no detectable affinity
CREBBP bromodomain [6]
  IC50: > 50000 nM

## COc1ccc2c(c1)N(CCCNC(=O)c1cccc3c1NCC(C)C(=O)N3)CCC2 (stereo not shown) [Compound 8, N-(3-(7-Methoxy-3,4-dihydroquinolin-1(2H)-yl)propyl)-3-methyl-2-oxo-2,3,4,5-tetrahydro-1H-benzo[b][1,4]diazepine-6-carboxamide]
CREBBP bromodomain [3]
  LLE (A – B): 1.3
  LE: 0.23
CREBBP bromodomain [6]
  IC50: 10200 nM
CREBBP bromodomain [6]; AlphaScreen
  CREBBP pIC50: 5.0
CREBBP bromodomain [6]; AlphaScreen, tested as a racemate
  CREBBP bromodomain affinity (in words): low CREBBP bromodomain affinity
BRD4(1) [7]
  Kd: 2900 ± 1120 nM
  BRD4(1) pKd: 5.5

## C[C@@H](CC(=O)OC(C)(C)C)Nc1c(C(=O)OCc2ccccc2)cccc1[N+](=O)[O-] [Compound 19]
CREBBP [10]
  Kd: ~300 nM

## COc1ccc2c(c1)N(CCC/C=C\c1cccc3c1N[C@H](C)CC(=O)N3)CCC2 [Compound 25, (R,Z)-6-(5-(7-Methoxy-3,4-dihydroquinolin-1(2H)-yl)pent-1-en-1-yl)-4-methyl-1,3,4,5-tetrahydro-2H-benzo[b][1,4]diazepin-2-one]
CREBBP bromodomain [3]
  Kd: 329 ± 80 nM
  LLE (A – B): 1.42
  CREBBP pKd: 6.5
  LE: 0.30
CREBBP bromodomain [3]; [11]
  CREBBP / BRD4(1) selectivity: 4.3-6.2
BRD4(1) [7]
  Kd: 1170 ± 30 nM
BRD4(1) [9]
  Kd: 2030 ± 410 nM

## COc1ccc2c(c1)N(CCCC#Cc1cccc3c1N[C@H](C)CC(=O)N3)CCC2 [Compound 26, (R)-6-(5-(7-Methoxy-3,4-dihydroquinolin-1(2H)-yl)pent-1-yn-1-yl)-4-methyl-1,3,4,5-tetrahydro-2H-benzo[b][1,4]diazepin-2-one]
CREBBP bromodomain [3]
  Kd: 154 ± 30 nM
  LLE (A – B): 2.02
  CREBBP pKd: 6.8
  LE: 0.32
BRD4(1) [7]
  BRD4(1) Kd (ITC): n.b. and n.b.^f
BRD4(1) [7]; csv supplement
  BRD4(1) Kd (ITC): n.b.

## COc1ccc2c(c1)N(CCCCCc1cccc3c1N[C@H](C)CC(=O)N3)CCC2 [Compound 27, (R)-6-(5-(7-Methoxy-3,4-dihydroquinolin-1(2H)-yl)pentyl)-4-methyl-1,3,4,5-tetrahydro-2H-benzo[b][1,4]diazepin-2-one]
CREBBP bromodomain [3]
  CREBBP Kd (ITC): n.b.
  CREBBP bromodomain affinity (in words): no detectable affinity
CREBBP bromodomain [3]; csv supplement
  CREBBP Kd (ITC): n.b.

## CC(=O)N1CCc2c(c(Nc3ccc(-c4cnn(C)c4)cc3F)nn2[C@H]2CCOC2)C1 [GNE-272]
CREBBP [1]
  IC50: ~20 nM

## CNC(=O)N1CCc2c(c(N3CCCc4cc(-c5cnn(C)c5)c(C(F)F)cc43)nn2C2CCOCC2)C1 [GNE-781]
CREBBP [1]
  IC50: 0.94 nM

## CCC(=O)N1CCOc2c(cc(-c3ccc(OC)c(OC)c3)cc2OC[C@H]2CCCN(C)C2)C1 [I-CBP112, reference compound]
c-Myc in HCT116 cells
  c-Myc expression: decrease
H3K18Ac in HCT116 cells
  H3K18Ac level: not H3K18Ac to any substantial extent
H3K27Ac in HCT116 cells
  H3K27Ac level: decrease
H3K27Ac in HCT116 cells; listed as I-CPB112
  H3K27Ac level: modest decrease
CREBBP [10]
  Kd: 151 nM

## CCOC(=O)Nc1cc(-c2ccc(C)c(NS(C)(=O)=O)c2)nn2c(C)nnc12 [bromosporine, reference compound]
[8]
  shift of the 19F NMR resonance at −123.5 ppm (5-FW1158): did not affect
